Here are results for nine compounds from publication PMC3826262 (MedChemComm, 2013).

Non-standard residues stand in square brackets, D forms with d. Residues, ends and D or L forms follow the SMILES beside them. *: point of attachment. Cbz = O=C(OCc1ccccc1)*; Dap = NC[C@H](N)C(=O)O

One assay deals with HOVPro (Norovirus Hu/Houston/TCH186/2002/US (Norovirus GII.4), UniProt A9YYE3). The assay can be described thus: Inhibition of Houston virus protease. The class given is biochemical. The settings on record: HOVPro vs NVPro Ki.
A further assay deals with NVPro (Norovirus, UniProt Q83883). Description: Inhibition of recombinant NVPro. The format is biochemical. The settings on record: for fold less active than compound 1: ratio of Ki vs compound 1; for Ki: Table 1, recombinant NVPro.

As to `CC(C)C[C@H](NC(=O)OCc1ccccc1)C(=O)N[C@@H](Cc1ccccc1)C(=O)N[C@H](C=O)CCC(=O)N(C)C` [compound 1, Z-Leu-Phe-Gln(diMe)-CHO] (Cbz-Leu-Phe-Glu(NMe2)-aldehyde), the “fold activity reduction against HOVPro as compared with NVPro” value on HOVPro is listed as over 60 fold. For the same compound, on NVPro (NVPro, ratio of Ki), the “fold more active than compound 8” value is 380 fold; the “fold more active than compounds 5 and 2” value is 3-5 fold.

Take `CC(=O)NC[C@@H](C=O)NC(=O)[C@H](Cc1ccccc1)NC(=O)[C@H](CC(C)C)NC(=O)OCc1ccccc1` [compound 3] (Cbz-Leu-Phe-[Dap](Ac)-aldehyde): the “fold less active than compound 1” value on NVPro (NVPro) is listed as ~ 12 fold.

Take `CC(=O)N[C@@H](CC(C)C)C(=O)N[C@@H](Cc1ccccc1)C(=O)N[C@H](C=O)CCC(=O)N(C)C` [compound 9] (Ac-Leu-Phe-Glu(NMe2)-aldehyde): at NVPro (NVPro), the “fold less active than compound 1” value was over 300 fold.

As to `CC(=O)[C@H](CCC(=O)N(C)C)NC(=O)[C@H](Cc1ccccc1)NC(=O)[C@H](CC(C)C)NC(=O)OCc1ccccc1` [compound 10], the “fold less active than compound 1” value at NVPro (NVPro) is given as 1,200 fold.

Regarding `CCOC(=O)/C=C/[C@H](CCC(=O)N(C)C)NC(=O)[C@H](Cc1ccccc1)NC(=O)[C@H](CC(C)C)NC(=O)OCc1ccccc1` [compound 11], at NVPro (NVPro), the “inhibitory activity against NVPro” value is “essentially inactive”. For the same compound, the Ki result on NVPro is “inactive”.

As to `CCOC(=O)/C=C/[C@H](CCC(N)=O)NC(=O)[C@H](Cc1ccccc1)NC(=O)[C@H](CC(C)C)NC(=O)OCc1ccccc1` [compound 12], the “inhibitory activity against NVPro” value on NVPro (NVPro) is “Neither 12 nor 13 exhibits inhibitory activity”. Also, the Ki entry at NVPro was “inactive”.

Consider `CCOC(=O)/C=C/[C@H](CNC(C)=O)NC(=O)[C@H](Cc1ccccc1)NC(=O)[C@H](CC(C)C)NC(=O)OCc1ccccc1` [compound 13], for which, on NVPro (NVPro), the “inhibitory activity against NVPro” value is “Neither 12 nor 13 exhibits inhibitory activity”. Also, the Ki result on NVPro was “inactive”.

With `CNC(=O)CC[C@@H](C=O)NC(=O)[C@H](Cc1ccccc1)NC(=O)[C@H](CC(C)C)NC(=O)OCc1ccccc1` [compound 14] (Cbz-Leu-Phe-Glu(NHMe)-aldehyde), on NVPro (NVPro), the “fold less active than compound 1” value is given as 42 fold.

For `CC(C)C[C@H](NC(=O)OCc1ccccc1)C(=O)N[C@@H](Cc1ccccc1)C(=O)N[C@H](C=O)CCC(=O)NC1CC1` [compound 15], on NVPro (NVPro, ratio of Ki), the “fold improved inhibition as compared to compound 14” value is given as ~ 3 fold.
